Assay results published in patent US10890591B2, “Methods and dose packs for monitoring medication adherence” (Synapse Biosciences, LLC, priority 2016, dated 2021).
Read-outs that look alike come from different tables or passages of the source. Each block holds one molecule with its values, some of them ahead of it.

Assays:
clinical [1] = conditions: human, in vivo
Excerpt: (§1) All other markers were obtained from commercial sources. Urine and saliva were collected prior to each day's dosing of marker confirming the presence or absence of markers before the experiment started. […] The presence of all 7 markers at day 8 would confirm that all markers were ingested in the previous 7 day one week period.
(§2) Healthy volunteers with no recent exposure to the markers who were not currently taking prescribed medications, OTC medications or vitamins and supplements were chosen. Exposure to the markers more than one month before starting the experiment was allowed and no dietary restrictions were required. Subjects were given a 7 day blister pack with markers sequenced in the order above. Subjects verbally confirmed they understood the urine and saliva collection procedures. Instructions printed on the marker blister pack instructed subjects to collect urine and saliva each morning before they took the daily dose of marker. They were also instructed to take the daily dose of marker close to the same time each day.

clinical [2] = conditions: human, in vivo, Urine Results
clinical [3] = test: clinical
Excerpt: as §1, §2

[4] = human, in vivo
[5] = Multiple Marker Experiment 2: urine samples, simulated non-adherence (one marker dose skipped per subject), LC-MS/MS; conditions: for Subject B, Urine Results / Subject C, Urine Results: collected before that day's dose; for Subject B, Urine Results / Subject C, Urine Results / concentration at 8 day: other markers dosed once; for concentration at 8 day: Urine Results, Day 8 sample
[6] = human, in vivo, Average of Urine Samples
[7] = Day 1 sample, collected before that day's dose, Experiment #1, adherent with all markers, each marker dosed once
[8] = Day 2 sample, collected before that day's dose, Experiment #1, adherent with all markers, each marker dosed once
[9] = Day 3 sample, collected before that day's dose, Experiment #1, adherent with all markers, each marker dosed once
[10] = Day 4 sample, collected before that day's dose, Experiment #1, adherent with all markers, each marker dosed once
[11] = Day 5 sample, collected before that day's dose, Experiment #1, adherent with all markers, each marker dosed once
[12] = Day 6 sample, collected before that day's dose, Experiment #1, adherent with all markers, each marker dosed once
[13] = Day 7 sample, collected before that day's dose, Experiment #1, adherent with all markers, each marker dosed once
[14] = Day 8 sample, Experiment #1, adherent with all markers, each marker dosed once

concentration at 1 day (clinical [1]): 30.7 ng/mL
concentration at 2 day (clinical [1]): 33.6 ng/mL
concentration at 3 day (clinical [1]): 32.8 ng/mL
concentration at 4 day (clinical [1]): 33.3 ng/mL
concentration at 5 day (clinical [1]): 23.8 ng/mL
concentration at 6 day (clinical [1]): 36.2 ng/mL
concentration at 7 day (clinical [1]): 36.8 ng/mL
concentration at 8 day (clinical [1]): 27 ng/mL
concentration at 7 day (clinical [2]; Subject A): 2920 ng/mL
concentration at 1 day (clinical [2]; Subject C): 1870 ng/mL
concentration at 2 day (clinical [2]; Subject C): 2490 ng/mL
concentration at 3 day (clinical [2]; Subject C): 4540 ng/mL
concentration at 4 day (clinical [2]; Subject C): 2520 ng/mL
concentration at 5 day (clinical [2]; Subject C): 5290 ng/mL
concentration at 6 day (clinical [2]; Subject C): 1040 ng/mL
concentration at 7 day (clinical [2]; Subject C): 1840 ng/mL
concentration at 8 day (clinical [2]; Subject C): 1610 ng/mL
concentration at 3 day (clinical [2]; Subject D): 4900 ng/mL
concentration at 4 day (clinical [2]; Subject D): 4930 ng/mL
concentration at 5 day (clinical [2]; Subject D): 5020 ng/mL
concentration at 6 day (clinical [2]; Subject D): 4400 ng/mL
concentration at 8 day (clinical [2]; Subject D): 4320 ng/mL
Subject C, Urine Results (clinical [3]; human, in vivo, 1 day): 1290 ng/m
Subject D, Urine Results (clinical [3]; human, in vivo, 1 day): 4167 ng/m
Subject C, Urine Results (clinical [3]; human, in vivo, 2 day): 2106 ng/m
Subject D, Urine Results (clinical [3]; human, in vivo, 2 day): 2789 ng/m
Subject C, Urine Results (clinical [3]; human, in vivo, 3 day): 1947 ng/m
Subject D, Urine Results (clinical [3]; human, in vivo, 3 day): 3626 ng/m
Subject C, Urine Results (clinical [3]; human, in vivo, 4 day): 1892 ng/m
Subject D, Urine Results (clinical [3]; human, in vivo, 4 day): 3426 ng/m
Subject C, Urine Results (clinical [3]; human, in vivo, 5 day): 2503 ng/m
Subject D, Urine Results (clinical [3]; human, in vivo, 5 day): 2268 ng/m
Subject C, Urine Results (clinical [3]; human, in vivo, 6 day): 1812 ng/m
Subject D, Urine Results (clinical [3]; human, in vivo, 6 day): 3024 ng/m
Subject C, Urine Results (clinical [3]; human, in vivo, 7 day): 1751 ng/m
Subject D, Urine Results (clinical [3]; human, in vivo, 7 day): 3908 ng/m
Subject C, Urine Results (clinical [3]; human, in vivo, 8 day): 2020 ng/m
Subject D, Urine Results (clinical [3]; human, in vivo, 8 day): 2894 ng/m
concentration at 1 day (clinical [3]; [6]): 1960 ng/mL
concentration at 2 day (clinical [3]; [6]): 2100 ng/mL
concentration at 3 day (clinical [3]; [6]): 2260 ng/mL
concentration at 4 day (clinical [3]; [6]): 2660 ng/mL
concentration at 5 day (clinical [3]; [6]): 2030 ng/mL
concentration at 6 day (clinical [3]; [6]): 1960 ng/mL
concentration at 7 day (clinical [3]; [6]): 2560 ng/mL
concentration at 8 day (clinical [3]; [6]): 2100 ng/mL
concentration at 7 day (clinical [3]; human, in vivo, Subject A, Urine Results): 2800 ng/mL
Compound: O=C1O[C@H]([C@@H](O)CO)C(O)=C1O [Ascorbic Acid]
course of urine levels relative to dosing (clinical [3]; in vivo): did not differ significantly from baseline levels
course of urine levels relative to dosing [4]: did not differ significantly from baseline levels

Compound: CN(C)C(=O)C(CCN1CCC(O)(c2ccc(Cl)cc2)CC1)(c1ccccc1)c1ccccc1 [Loperamide]
concentration at 1 day (clinical [1]): 0 ng/mL
concentration at 2 day (clinical [1]): 0 ng/mL
concentration at 3 day (clinical [1]): 0.431 ng/mL
concentration at 4 day (clinical [1]): 0.18 ng/mL
concentration at 5 day (clinical [1]): 0.257 ng/mL
concentration at 6 day (clinical [1]): 0.112 ng/mL
concentration at 7 day (clinical [1]): 0.0922 ng/mL
concentration at 8 day (clinical [1]): 0.0265 ng/mL
Subject B, Urine Results ([5]; Day 1 sample, Experiment #2, subject B skipped diphenhydramine on day 5): 0 ng/mL
Subject C, Urine Results ([5]; Day 1 sample, Experiment #2, subject C skipped Loperamide on day 2): 0 ng/mL
Subject B, Urine Results ([5]; Day 2 sample, Experiment #2, subject B skipped diphenhydramine on day 5): 0 ng/mL
Subject C, Urine Results ([5]; Day 2 sample, Experiment #2, subject C skipped Loperamide on day 2): 0 ng/mL
Subject B, Urine Results ([5]; Day 3 sample, Experiment #2, subject B skipped diphenhydramine on day 5): 209 ng/mL
Subject C, Urine Results ([5]; Day 3 sample, Experiment #2, subject C skipped Loperamide on day 2): 0 ng/mL
Subject B, Urine Results ([5]; Day 4 sample, Experiment #2, subject B skipped diphenhydramine on day 5): 101 ng/mL
Subject C, Urine Results ([5]; Day 4 sample, Experiment #2, subject C skipped Loperamide on day 2): 0 ng/mL
Subject B, Urine Results ([5]; Day 5 sample, Experiment #2, subject B skipped diphenhydramine on day 5): 32.3 ng/mL
Subject C, Urine Results ([5]; Day 5 sample, Experiment #2, subject C skipped Loperamide on day 2): 0 ng/mL
Subject B, Urine Results ([5]; Day 6 sample, Experiment #2, subject B skipped diphenhydramine on day 5): 13.8 ng/mL
Subject C, Urine Results ([5]; Day 6 sample, Experiment #2, subject C skipped Loperamide on day 2): 0 ng/mL
Subject B, Urine Results ([5]; Day 7 sample, Experiment #2, subject B skipped diphenhydramine on day 5): 12.8 ng/mL
Subject C, Urine Results ([5]; Day 7 sample, Experiment #2, subject C skipped Loperamide on day 2): 0 ng/mL
course of urine levels relative to dosing ([5]; Experiment 2, days 1-8): zero before dosing, peaked the day after dosing and slowly decreased over time
concentration at 1 day ([5]; human, in vivo): 0 ng/mL
concentration at 2 day ([5]; human, in vivo): 0 ng/mL
concentration at 8 day ([5]; human, in vivo, Subject B, Experiment #2, subject B skipped diphenhydramine on day 5): 2.92 ng/mL
concentration at 8 day ([5]; human, in vivo, Subject C, Experiment #2, subject C skipped Loperamide on day 2): 0 ng/mL
Subject A, Urine Results (clinical [3]; [7]): 0 ng/mL
Subject B, Urine Results (clinical [3]; [7]): 0 ng/mL
Subject C, Urine Results (clinical [3]; [7]): 0 ng/m
Subject D, Urine Results (clinical [3]; [7]): 0 ng/m
Subject A, Urine Results (clinical [3]; [8]): 0 ng/mL
Subject B, Urine Results (clinical [3]; [8]): 0 ng/mL
Subject C, Urine Results (clinical [3]; [8]): 0 ng/m
Subject D, Urine Results (clinical [3]; [8]): 0 ng/m
Subject A, Urine Results (clinical [3]; [9]): 28.4 ng/mL
Subject B, Urine Results (clinical [3]; [9]): 206 ng/mL
Subject C, Urine Results (clinical [3]; [9]): 75.2 ng/m
Subject D, Urine Results (clinical [3]; [9]): 110 ng/m
Average of Urine Samples (clinical [3]; Day 3 sample, collected before that day's dose, average of subjects A, B, C, D, Experiment 1, each marker dosed once): 104.9 ng/mL
Subject A, Urine Results (clinical [3]; [10]): 98.4 ng/mL
Subject B, Urine Results (clinical [3]; [10]): 26.8 ng/mL
Subject C, Urine Results (clinical [3]; [10]): 23.7 ng/m
Subject D, Urine Results (clinical [3]; [10]): 100 ng/m
Average of Urine Samples (clinical [3]; Day 4 sample, collected before that day's dose, average of subjects A, B, C, D, Experiment 1, each marker dosed once): 62.225 ng/mL
Subject A, Urine Results (clinical [3]; [11]): 31.6 ng/mL
Subject B, Urine Results (clinical [3]; [11]): 6.94 ng/mL
Subject C, Urine Results (clinical [3]; [11]): 7.11 ng/m
Subject D, Urine Results (clinical [3]; [11]): 18.6 ng/m
Average of Urine Samples (clinical [3]; Day 5 sample, collected before that day's dose, average of subjects A, B, C, D, Experiment 1, each marker dosed once): 16.0625 ng/mL
Subject A, Urine Results (clinical [3]; [12]): 24.1 ng/mL
Subject B, Urine Results (clinical [3]; [12]): 5.5 ng/mL
Subject C, Urine Results (clinical [3]; [12]): 5.02 ng/m
Subject D, Urine Results (clinical [3]; [12]): 6.37 ng/m
Average of Urine Samples (clinical [3]; Day 6 sample, collected before that day's dose, average of subjects A, B, C, D, Experiment 1, each marker dosed once): 10.2475 ng/mL
Subject A, Urine Results (clinical [3]; [13]): 0.035 ng/mL
Subject B, Urine Results (clinical [3]; [13]): 2.33 ng/mL
Subject C, Urine Results (clinical [3]; [13]): 2.41 ng/m
Subject D, Urine Results (clinical [3]; [13]): 5.8 ng/m
Average of Urine Samples (clinical [3]; Day 7 sample, collected before that day's dose, average of subjects A, B, C, D, Experiment 1, each marker dosed once): 2.644 ng/mL
Subject C, Urine Results (clinical [3]; [14]): 1.89 ng/m
Subject D, Urine Results (clinical [3]; [14]): 2.71 ng/m
course of urine levels relative to dosing (clinical [3]; Experiment 1, days 1-8): zero before dosing, peaked the day after dosing and slowly decreased over time
concentration at 1 day (clinical [3]; human, in vivo): 0 ng/mL
concentration at 2 day (clinical [3]; human, in vivo): 0 ng/mL
concentration at 8 day (clinical [3]; human, in vivo, Average of Urine Samples, Day 8 sample, average of subjects A, B, C, D, Experiment 1, each marker dosed once): 1.18 ng/mL
concentration at 8 day (clinical [3]; human, in vivo, Subject A, Urine Results, Day 8 sample, Experiment #1, adherent with all markers, each marker dosed once): 0.022 ng/mL
concentration at 8 day (clinical [3]; human, in vivo, Subject B, Urine Results, Day 8 sample, Experiment #1, adherent with all markers, each marker dosed once): 0.107 ng/mL
